# Earlier results as cited in patent US10851274B2, “Coolant mixtures for use in heat-exchange devices in the aerospace field” (Safran Electrical & Power, priority 2016, dated 2020).
# Experiments:
# [1] = known fluids, water and antigels; criterion >500
# [2] = for Toxicity: known coolant fluids, water and antigels, criterion: No; for Toxicity (in words): known fluids
# [3] = known fluids; for FP: water and antigels, criterion ≥23
# [4] = known fluids, water and antigels; criterion <100
smiles,measurement,setting,value
CCO [Ethanol],ΔHvap,[1],837 kJ/kg
same,Toxicity,[2],No (a fluid is non-toxic if its oral LD50 is greater than 500 mg/kg)
same,Flammability (in words),[3],highly flammable
same,FP,[3],13 °C
same,Tb,[4],78 °C
O=C=O [Carbon dioxide],ΔHvap,[1],400 kJ/kg
same,Toxicity,[2],No (a fluid is non-toxic if its oral LD50 is greater than 500 mg/kg)
same,FP,[3],None
same,Tb,[4],−57 °C
O [Water],Toxicity,[2],No (a fluid is non-toxic if its oral LD50 is greater than 500 mg/kg)
same,Toxicity (in words),[2],non-toxic
same,Flammability (in words),[3],fireproof
same,FP,[3],None
same,Tb,[4],100 °C
"CC(O)CO (stereo not shown) [Propylene-glycol, propylene glycol]",ΔHvap,[1],736 kJ/kg
same,Toxicity,[2],No (a fluid is non-toxic if its oral LD50 is greater than 500 mg/kg)
same,FP,[3],107 °C
same,Tb,[4],187 °C
OCCO [ethylene glycol],Toxicity (in words),[2],highly toxic
"CCOC(F)(F)C(F)(F)C(F)(F)C(F)(F)F [HFE 3M Novec 7100, ethoxynonafluorobutane]",ΔHvap,[1],126 kJ/kg
same,Toxicity,[2],No (a fluid is non-toxic if its oral LD50 is greater than 500 mg/kg)
same,FP,[3],None
same,Tb,[4],76 °C
"N [Ammoniac, ammonia]",ΔHvap,[1],1371 kJ/kg
same,Toxicity,[2],Yes
same,Toxicity (in words),[2],toxic
same,FP,[3],132 °C
same,Tb,[4],−33 °C
CC(C)=O [Acetone],ΔHvap,[1],501 kJ/kg
same,Toxicity,[2],No (a fluid is non-toxic if its oral LD50 is greater than 500 mg/kg)
same,Flammability (in words),[3],highly flammable
same,FP,[3],−20 °C
same,Tb,[4],57 °C
CCOCC(C)O (stereo not shown) [1-ethoxy-2-propanol],ΔHvap,[1],308 kJ/kg
same,Toxicity,[2],No (a fluid is non-toxic if its oral LD50 is greater than 500 mg/kg)
same,FP,[3],42 °C
same,Tb,[4],132 °C
COCC(C)O (stereo not shown) [1-methoxy-2-propanol],ΔHvap,[1],461 kJ/kg
same,Toxicity,[2],No (a fluid is non-toxic if its oral LD50 is greater than 500 mg/kg)
same,FP,[3],34 °C
same,Tb,[4],118 °C
CO [Methanol],ΔHvap,[1],1098 kJ/kg
same,Toxicity,[2],Yes
same,Flammability (in words),[3],highly flammable
same,FP,[3],11 °C
same,Tb,[4],64 °C
